Test results as given in patent publication US9725465B2, “Biaryl acetamide compounds and methods of use thereof” (Ambit Biosciences Corporation, priority 2013, dated 2017).
Where a name gives a salt, the structure may show the parent alone.

Columns and labels:
KIT kinase = KIT kinase (Homo sapiens (Human), UniProt P10721); experiment: Competition binding assay (Kd), KIT; details: competition binding assay
How it was run: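 Kd derived from eleven-point threefold serial dilutions of compound competing with bead-bound ligand for kinase; bound kinase eluted and measured by quantitative PCR. Kinase supplied either as a T7 phage fusion or expressed in HEK-293 cells with a DNA tag; DMSO served as control.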

FLT3-ITD = FLT3-ITD (Homo sapiens (Human), UniProt P36888, INS600HVDFREYEYD); experiment: pFLT3 MSD assay, Ba/F3 FLT3-ITD; format: cell-based; details: Ba/F3 FLT3-ITD cells, 2 hours, read-out: BaF3-FLT3-ITD pFlt3 IC50
Procedure: In certain other embodiments, the compounds disclosed herein are tested in a FLT3 phosphorylation assay to determine their cellular potency against one or both of FLT3-ITD and FLT3 tyrosine kinase domain mutants. In certain embodiments, the FLT3 phosphorylation assay assesses the potency of compounds as FLT3 inhibitors by measuring the reduction in formation of phosphorylated FLT3 in the cells.
Gene constructs containing the human FLT3 sequences FLT3-ITD, FLT3-ITD-F691L, FLT3-ITD-D835V and FLT3-D835V were synthesized by reverse translation of the human protein sequences, with codons optimized for mammalian expression. Sequence of the internal tandem duplication (ITD) was based on the MV4-11 ITD sequence. […] Viruses were transduced into the IL-3-dependent, murine macrophage cell line, Ba/F3, and selected for puromycin resistance and IL-3 independence. All cell lines were cloned by limiting dilution and clones were used for all subsequent cell assays.
Briefly, cell lines were serum starved overnight in media containing 0.5% FBS. Cells were plated at 200,000 cells/well in 96-well round bottom plates in low serum, and 3-fold serial dilutions of test compounds were added for 2 hours at 37° C. […] After an overnight incubation at 4° C. shaking at 450 rpm, plates were washed with MSD wash buffer, and captured FLT3 was detected with biotinylated-anti-phosphotyrosine antibody 4G10 (Millipore) and SulfoTAG-streptavidin (MSD) for 1 hour at room temperature, and read on an MSD SECTOR Imager 6000. Percent remaining phospho-FLT3 in compound-treated cells was normalized to DMSO-treated cells, and IC50s were determined using Igor Pro software. All compounds are assayed in duplicate cell and MSD plates.

FLT3 kinase = FLT3 kinase (Homo sapiens (Human), UniProt P36888); experiment: Competition binding assay (Kd), FLT3; details: competition binding assay
FLT3 kinase, sequence (P36888 27-993): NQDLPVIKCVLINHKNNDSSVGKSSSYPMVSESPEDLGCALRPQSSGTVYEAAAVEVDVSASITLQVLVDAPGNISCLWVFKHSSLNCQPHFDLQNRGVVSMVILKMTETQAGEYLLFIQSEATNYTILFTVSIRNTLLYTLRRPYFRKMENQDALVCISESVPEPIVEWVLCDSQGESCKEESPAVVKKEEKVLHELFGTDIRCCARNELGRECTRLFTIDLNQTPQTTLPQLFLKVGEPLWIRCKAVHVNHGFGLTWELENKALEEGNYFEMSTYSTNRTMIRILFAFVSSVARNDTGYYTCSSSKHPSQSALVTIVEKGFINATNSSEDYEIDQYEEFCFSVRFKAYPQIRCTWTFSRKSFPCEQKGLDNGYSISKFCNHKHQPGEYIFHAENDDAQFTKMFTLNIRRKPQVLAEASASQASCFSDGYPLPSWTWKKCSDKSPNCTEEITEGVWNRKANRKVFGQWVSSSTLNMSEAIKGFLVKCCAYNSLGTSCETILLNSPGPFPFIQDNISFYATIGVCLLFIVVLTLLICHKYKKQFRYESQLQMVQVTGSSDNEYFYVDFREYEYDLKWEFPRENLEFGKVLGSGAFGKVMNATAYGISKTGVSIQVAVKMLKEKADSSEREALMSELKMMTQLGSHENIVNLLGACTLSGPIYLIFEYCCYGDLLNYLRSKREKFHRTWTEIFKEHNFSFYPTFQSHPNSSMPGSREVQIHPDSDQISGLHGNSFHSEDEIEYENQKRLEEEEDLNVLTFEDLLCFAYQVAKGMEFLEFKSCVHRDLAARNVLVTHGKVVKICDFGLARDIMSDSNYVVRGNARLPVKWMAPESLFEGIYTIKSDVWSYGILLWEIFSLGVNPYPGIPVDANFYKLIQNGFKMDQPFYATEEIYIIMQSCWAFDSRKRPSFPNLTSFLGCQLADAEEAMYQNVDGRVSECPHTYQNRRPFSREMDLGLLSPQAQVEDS

FLT3-ITD, sequence (P36888 other isoform, or with tags, fused parts or gaps limits assumed, stated change not applied): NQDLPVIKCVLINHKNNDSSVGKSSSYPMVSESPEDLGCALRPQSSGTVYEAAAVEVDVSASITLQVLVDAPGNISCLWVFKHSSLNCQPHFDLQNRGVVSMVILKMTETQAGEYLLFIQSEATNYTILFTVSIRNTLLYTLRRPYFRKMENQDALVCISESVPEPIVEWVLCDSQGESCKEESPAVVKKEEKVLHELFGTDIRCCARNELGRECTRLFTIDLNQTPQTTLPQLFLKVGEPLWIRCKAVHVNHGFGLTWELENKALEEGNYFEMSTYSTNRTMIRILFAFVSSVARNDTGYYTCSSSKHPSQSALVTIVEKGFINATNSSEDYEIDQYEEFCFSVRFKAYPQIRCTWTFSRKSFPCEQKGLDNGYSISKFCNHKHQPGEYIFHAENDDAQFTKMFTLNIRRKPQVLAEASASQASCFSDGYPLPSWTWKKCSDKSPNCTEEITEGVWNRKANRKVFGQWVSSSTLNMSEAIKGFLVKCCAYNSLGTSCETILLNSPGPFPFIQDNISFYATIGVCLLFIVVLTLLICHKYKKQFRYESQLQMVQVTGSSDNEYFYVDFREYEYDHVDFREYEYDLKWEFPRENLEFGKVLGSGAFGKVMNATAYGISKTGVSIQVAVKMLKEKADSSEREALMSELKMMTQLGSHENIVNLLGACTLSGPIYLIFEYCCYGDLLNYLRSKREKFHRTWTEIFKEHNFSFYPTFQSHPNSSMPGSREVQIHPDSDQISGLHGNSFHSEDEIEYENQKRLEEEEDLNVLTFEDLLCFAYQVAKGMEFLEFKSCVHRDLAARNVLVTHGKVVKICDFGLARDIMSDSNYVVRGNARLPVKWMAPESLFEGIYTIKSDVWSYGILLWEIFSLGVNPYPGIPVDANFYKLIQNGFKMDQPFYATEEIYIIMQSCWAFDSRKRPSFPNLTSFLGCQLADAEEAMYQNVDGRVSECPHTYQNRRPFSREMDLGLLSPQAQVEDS
KIT kinase, sequence (P10721 26-976): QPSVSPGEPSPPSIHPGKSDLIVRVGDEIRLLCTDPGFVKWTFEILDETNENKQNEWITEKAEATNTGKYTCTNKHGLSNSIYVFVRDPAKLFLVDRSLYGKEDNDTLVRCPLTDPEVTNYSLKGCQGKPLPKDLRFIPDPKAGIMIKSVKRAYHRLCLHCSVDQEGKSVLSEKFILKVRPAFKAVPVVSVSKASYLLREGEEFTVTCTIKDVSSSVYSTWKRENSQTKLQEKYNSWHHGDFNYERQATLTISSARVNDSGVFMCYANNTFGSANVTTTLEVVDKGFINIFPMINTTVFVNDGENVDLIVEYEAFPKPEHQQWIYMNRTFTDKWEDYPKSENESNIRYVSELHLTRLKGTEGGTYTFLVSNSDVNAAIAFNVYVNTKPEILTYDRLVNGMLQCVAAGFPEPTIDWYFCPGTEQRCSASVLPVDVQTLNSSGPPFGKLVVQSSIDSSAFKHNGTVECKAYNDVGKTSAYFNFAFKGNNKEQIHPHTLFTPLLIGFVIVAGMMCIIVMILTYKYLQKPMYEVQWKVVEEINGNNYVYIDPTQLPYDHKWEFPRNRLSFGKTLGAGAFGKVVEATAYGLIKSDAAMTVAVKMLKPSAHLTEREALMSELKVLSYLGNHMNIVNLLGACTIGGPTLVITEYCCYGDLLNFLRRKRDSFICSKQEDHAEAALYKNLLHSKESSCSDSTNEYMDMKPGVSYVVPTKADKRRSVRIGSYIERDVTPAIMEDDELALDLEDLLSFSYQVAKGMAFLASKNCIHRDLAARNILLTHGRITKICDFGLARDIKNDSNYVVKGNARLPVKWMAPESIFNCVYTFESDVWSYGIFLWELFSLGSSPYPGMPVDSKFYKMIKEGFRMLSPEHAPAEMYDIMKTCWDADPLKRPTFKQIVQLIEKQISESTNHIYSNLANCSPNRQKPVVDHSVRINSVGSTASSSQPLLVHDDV

Compound | Kd (KIT kinase) | IC50 (FLT3-ITD) | Kd (FLT3 kinase)
COc1ccc2cc(-c3ccc(CC(=O)Nc4cc(C5(C(F)(F)F)CC5)on4)cc3)cnc2c1 [Example 2, 2-(4-(7-methoxyquinolin-3-yl)phenyl)-N-(5-(1-(trifluoromethyl)cyclopropyl)isoxazol-3-yl)acetamide] | < 5 nM | < 10 nM | < 5 nM
O=C(Cc1ccc(-c2cnc3[nH]ccc3n2)cc1)Nc1cc(C2(C(F)(F)F)CC2)on1 [Example 3, 2-(4-(5H-pyrrolo[2,3-b]pyrazin-2-yl)phenyl)-N-(5-(1-(trifluoromethyl)cyclopropyl)isoxazol-3-yl)acetamide] | < 5 nM | < 10 nM | < 5 nM
COc1cc2ncc(-c3ccc(CC(=O)Nc4cc(C5(C(F)(F)F)CC5)on4)c(F)c3)nc2cc1OC [Example 4, 2-(4-(6,7-dimethoxyquinoxalin-2-yl)-2-fluorophenyl)-N-(5-(1-(trifluoromethyl)cyclopropyl)isoxazol-3-yl)acetamide] | < 5 nM | < 10 nM | < 5 nM
COc1cc2cc(-c3ccc(CC(=O)Nc4cc(C5(C(F)(F)F)CC5)on4)cc3)cnc2cc1OC [Example 5, 2-(4-(6,7-dimethoxyquinolin-3-yl)phenyl)-N-(5-(1-(trifluoromethyl)cyclopropyl)isoxazol-3-yl)acetamide] | < 5 nM | < 10 nM | < 5 nM
COc1cc2ncc(-c3ccc(CC(=O)Nc4cc(C(C)(C)C)on4)cc3)nc2cc1OC [Example 6, N-(5-(tert-butyl)isoxazol-3-yl)-2-(4-(6,7-dimethoxyquinoxalin-2-yl)phenyl)acetamide] | < 5 nM | < 10 nM | < 5 nM
COc1cc2ncc(-c3ccc(CC(=O)Nc4cc(C(C)(C)C(F)(F)F)on4)cc3)nc2cc1OC [Example 8, 2-(4-(6,7-dimethoxyquinoxalin-2-yl)phenyl)-N-(5-(1,1,1-trifluoro-2-methylpropan-2-yl)isoxazol-3-yl)acetamide] | < 5 nM | < 10 nM | < 5 nM
O=C(Cc1ccc(-c2cnc3[nH]ncc3c2)cc1)Nc1cc(C2(C(F)(F)F)CC2)on1 [Example 15, 2-(4-(1H-pyrazolo[3,4-b]pyridin-5-yl)phenyl)-N-(5-(1-(trifluoromethyl)cyclopropyl)isoxazol-3-yl)acetamide] | < 5 nM | < 10 nM | –
O=C(Cc1ccc(-c2cnc3[nH]ccc3c2)cc1)Nc1cc(C2(C(F)(F)F)CC2)on1 [Example 18, 2-(4-(1H-pyrrolo[2,3-b]pyridin-5-yl)phenyl)-N-(5-(1-(trifluoromethyl)cyclopropyl)isoxazol-3-yl)acetamide] | < 5 nM | < 10 nM | –
COc1cc2ncc(-c3ccc(CC(=O)Nc4cc(C(C)(C)C(F)(F)F)on4)c(F)c3)nc2cc1OC [Example 46, 2-(4-(6,7-dimethoxyquinoxalin-2-yl)-2-fluorophenyl)-N-(5-(1,1,1-trifluoro-2-methylpropan-2-yl)isoxazol-3-yl)acetamide] | 5 to 20 nM | < 10 nM | < 5 nM
COCCOc1n[nH]c2ncc(-c3ccc(CC(=O)Nc4cc(C(C)(C)C(F)(F)F)on4)cc3)cc12 [Example 47, 2-(4-(3-(2-methoxyethoxy)-1H-pyrazolo[3,4-b]pyridin-5-yl)phenyl)-N-(5-(1,1,1-trifluoro-2-methylpropan-2-yl)isoxazol-3-yl)acetamide] | – | < 10 nM | –
CC(C)(c1cc(NC(=O)Cc2ccc(-c3cnc4[nH]nc(OC5CCNCC5)c4c3)cc2)no1)C(F)(F)F [Example 48, 2-(4-(3-(piperidin-4-yloxy)-1H-pyrazolo[3,4-b]pyridin-5-yl)phenyl)-N-(5-(1,1,1-trifluoro-2-methylpropan-2-yl)isoxazol-3-yl)acetamide formate salt] | – | < 10 nM | –
CN(C)C(=O)c1cc2cc(-c3ccc(CC(=O)Nc4cc(C(C)(C)C)on4)cc3)cnc2[nH]1 [Example 49, 5-(4-(2-((5-(tert-butyl)isoxazol-3-yl)amino)-2-oxoethyl)phenyl)-N,N-dimethyl-1H-pyrrolo[2,3-b]pyridine-2-carboxamide] | – | < 10 nM | –
CC(C)(C)c1cc(NC(=O)Cc2ccc(-c3cnc4[nH]c(CO)cc4c3)cc2)no1 [Example 50, N-(5-(tert-butyl)isoxazol-3-yl)-2-(4-(2-(hydroxymethyl)-1H-pyrrolo[2,3-b]pyridin-5-yl)phenyl)acetamide] | – | < 10 nM | –
Cc1n[nH]c2ncc(-c3ccc(CC(=O)Nc4cc(C(C)(C)C)on4)c(F)c3)cc12 [Example 51, N-(5-(tert-butyl)isoxazol-3-yl)-2-(2-fluoro-4-(3-methyl-1H-pyrazolo[3,4-b]pyridin-5-yl)phenyl)acetamide] | – | < 10 nM | –
CN(C)Cc1cc2cc(-c3ccc(CC(=O)Nc4cc(C(C)(C)C)on4)cc3)cnc2[nH]1 [Example 52, N-(5-(tert-butyl)isoxazol-3-yl)-2-(4-(2-((dimethylamino)methyl)-1H-pyrrolo[2,3-b]pyridin-5-yl)phenyl)acetamide] | – | < 10 nM | –
COc1n[nH]c2ncc(-c3ccc(CC(=O)Nc4cc(C5(C(F)(F)F)CC5)on4)c(F)c3)cc12 [Example 53, 2-(2-fluoro-4-(3-methoxy-1H-pyrazolo[3,4-b]pyridin-5-yl)phenyl)-N-(5-(1-(trifluoromethyl)cyclopropyl)isoxazol-3-yl)acetamide] | – | < 10 nM | –
CNCc1c[nH]c2ncc(-c3ccc(CC(=O)Nc4cc(C(C)(C)C)on4)cc3)cc12 [Example 54, N-(5-(tert-butyl)isoxazol-3-yl)-2-(4-(3-((methylamino)methyl)-1H-pyrrolo[2,3-b]pyridin-5-yl)phenyl)acetamide] | – | 10 to 20 nM | –
CC(C)(C)c1cc(NC(=O)Cc2ccc(-c3cnc4[nH]nc(CO)c4c3)cc2F)no1 [Example 55, N-(5-(tert-butyl)isoxazol-3-yl)-2-(2-fluoro-4-(3-(hydroxymethyl)-1H-pyrazolo[3,4-b]pyridin-5-yl)phenyl)acetamide] | – | < 10 nM | –
O=C(Cc1ccc(-c2cnc3[nH]ncc3c2)cc1F)Nc1cc(C2(C(F)(F)F)CCC2)on1 [Example 56, 2-(2-Fluoro-4-(1H-pyrazolo[3,4-b]pyridin-5-yl)phenyl)-N-(5-(1-(trifluoromethyl)cyclobutyl)isoxazol-3-yl)acetamide] | – | < 10 nM | –
CNCc1n[nH]c2ncc(-c3ccc(CC(=O)Nc4cc(C(C)(C)C)on4)c(F)c3)cc12 [Example 57, N-(5-(tert-butyl)isoxazol-3-yl)-2-(2-fluoro-4-(3-((methylamino)methyl)-1H-pyrazolo[3,4-b]pyridin-5-yl)phenyl)acetamide] | – | < 10 nM | –
CN(C)Cc1n[nH]c2ncc(-c3ccc(CC(=O)Nc4cc(C(C)(C)C)on4)c(F)c3)cc12 [Example 58, N-(5-(tert-butyl)isoxazol-3-yl)-2-(4-(3-((dimethylamino)methyl)-1H-pyrazolo[3,4-b]pyridin-5-yl)-2-fluorophenyl)acetamide] | – | < 10 nM | –
CN(C)Cc1c[nH]c2ncc(-c3ccc(CC(=O)Nc4cc(C(C)(C)C)on4)cc3)cc12 [Example 59, N-(5-(tert-butyl)isoxazol-3-yl)-2-(4-(3-((dimethylamino)methyl)-1H-pyrrolo[2,3-b]pyridin-5-yl)phenyl)acetamide formate salt] | – | < 10 nM | –
CC(C)(C)c1cc(NC(=O)Cc2ccc(-c3cnc4[nH]cc(CO)c4c3)cc2)no1 [Example 60, N-(5-(tert-butyl)isoxazol-3-yl)-2-(4-(3-(hydroxymethyl)-1H-pyrrolo[2,3-b]pyridin-5-yl)phenyl)acetamide] | – | < 10 nM | –
CN(C)c1n[nH]c2ncc(-c3ccc(CC(=O)Nc4cc(C5(C(F)(F)F)CC5)on4)c(F)c3)cc12 [Example 61, 2-(4-(3-(dimethylamino)-1H-pyrazolo[3,4-b]pyridin-5-yl)-2-fluorophenyl)-N-(5-(1-(trifluoromethyl)cyclopropyl)isoxazol-3-yl)acetamide] | – | < 10 nM | –
CC(O)c1n[nH]c2ncc(-c3ccc(CC(=O)Nc4cc(C(C)(C)C)on4)c(F)c3)cc12 (stereo not drawn) [Example 62, N-(5-(tert-butyl)isoxazol-3-yl)-2-(2-fluoro-4-(3-(1-hydroxyethyl)-1H-pyrazolo[3,4-b]pyridin-5-yl)phenyl)acetamide] | < 5 nM | < 10 nM | < 5 nM
COc1n[nH]c2ncc(-c3ccc(CC(=O)Nc4cc(C(C)(C)C(F)(F)F)on4)c(F)c3)cc12 [Example 63, 2-(2-fluoro-4-(3-methoxy-1H-pyrazolo[3,4-b]pyridin-5-yl)phenyl)-N-(5-(1,1,1-trifluoro-2-methylpropan-2-yl)isoxazol-3-yl)acetamide] | < 5 nM | < 10 nM | < 5 nM
CC(C)(C)c1cc(NC(=O)Cc2ccc(-c3cnc4[nH]ccc4c3)cc2)on1 [Example 71, 2-(4-(1H-pyrrolo[2,3-b]pyridin-5-yl)phenyl)-N-(3-(tert-butyl)isoxazol-5-yl)acetamide] | – | < 10 nM | –
COc1cc2ncc(-c3ccc(CC(=O)Nc4cc(C5(C(F)(F)F)CC5)no4)cc3)nc2cc1OC [Example 72, 2-(4-(6,7-dimethoxyquinoxalin-2-yl)phenyl)-N-(3-(1-(trifluoromethyl)cyclopropyl)isoxazol-5-yl)acetamide] | – | < 10 nM | –
COc1cc2ncc(-c3ccc(CC(=O)Nc4cc(C(C)(C)C)no4)cc3)nc2cc1OC [Example 73, N-(3-(tert-butyl)isoxazol-5-yl)-2-(4-(6,7-dimethoxyquinoxalin-2-yl)phenyl)acetamide] | – | < 10 nM | –
COc1cc2nc(-c3ccc(CC(=O)Nc4cc(C5(C(F)(F)F)CC5)on4)c(F)c3)cnc2cc1OC1CNC1 [Example 89, 2-(4-(6-(azetidin-3-yloxy)-7-methoxyquinoxalin-2-yl)-2-fluorophenyl)-N-(5-(1-(trifluoromethyl)cyclopropyl)isoxazol-3-yl)acetamide] | 5 to 20 nM | < 10 nM | –
